Data on 1 compound can be found in paper PMC7824033, “Flavones, Flavonols, and Glycosylated Derivatives—Impact on Candida albicans Growth and Virulence, Expression of CDR1 and ERG11, Cytotoxicity” (Pharmaceuticals, 2020).

Converted amounts (≈) assume the structure as drawn. Read-outs that look alike come from different tables or passages of the source.

Broadly, the MFC is the smallest concentration meeting the test's criterion for killing the fungus. The term GI50 denotes the concentration giving 50% growth inhibition. Higher therefore signals lower sensitivity of the cells.

The subject of one data set is C. albicans 10/15. The data set is described as follows: Microdilution assay, MIC and MFC. To be noted: Candida albicans, C. albicans 10/15, mean ± SD of three replicates. The class given is cell-based. The text has this: (§1) C. albicans was isolated from oral cavities of patients at ENT Clinic, Clinical Hospital Centre Zvezdara, Belgrade, Serbia after obtaining informed written consent and identified by using CHROMagar plates (Biomerieux, Craponne, France). Strains were maintained on Sabouraud Dextrose Agar (Merck, Darmstadt, Germany) and are deposited at the Mycological Laboratory, Department of Plant Physiology, Institute for Biological Research “Siniša Stanković”, National Institute of Republic of Serbia, University of Belgrade. The collection of samples was approved by the Ethical Committee (Office for Human Research Protection, Zvezdara University Medical Center, Belgrade, Serbia, document issued 26 October 2016).
(§2) Microdilution assay with some modification was used for determination of minimum inhibitory (MIC) and minimum fungicidal concentrations (MFC). Yeast cultures were adjusted to 1.0 × 10^5 CFU/per well with sterile PBS (Phosphate buffered saline, pH 7.4). The 96-well microtiter plates with serially diluted flavonoids (concentration range 0.3–75 µg/mL) in liquid broth were incubated at 37 °C for 24 h. After incubation, MIC and MFC were determined. The lowest concentrations that were not inducing microscopically observed growth were considered as MIC. For microscopic determination of growth, we used inverted microscope Nikon Eclipse TS2 (Amsterdam, Netherland) and examined the fungal growth in the wells of 96-well microtiter plates compared to the control (untreated yeast cells). MFC values were determined as concentrations without visible growth after serial sub-cultivation of 10 µL of samples at 37 °C for 24 h. Ketoconazole and amphotericin B (SigmaAldrich, Darmstadt, Germany) were used as an antifungal control. The tested flavonoids were obtained from Extrasynthese, Rhone, France.
On the technique in general: In broth dilution the organism is exposed to a series of concentrations in liquid medium.

The subject of the next data set is C. albicans 13/15. The data set is described as follows: Microdilution assay, MIC and MFC. The format is cell-based. The settings on record: Candida albicans, C. albicans 13/15, mean ± SD of three replicates.
Excerpt: as §1, §2

The next data set deals with C. albicans 475/15. The data set is described as follows: Microdilution assay, MIC and MFC. The format is cell-based. To be noted: Candida albicans, C. albicans 475/15, mean ± SD of three replicates.
Excerpt: as §1, §2

For a further data set, the system named is C. albicans 527/14. The data set is described as follows: Microdilution assay, MIC and MFC. The format is cell-based. The settings on record: Candida albicans, C. albicans 527/14, mean ± SD of three replicates.
Excerpt: as §1, §2

Another data set has as its system Candida albicans. The data set is described as follows: Microdilution assay, MIC (strain not named). The format is cell-based. To be noted: C. albicans, this study, strain not given, read-out: minimum inhibitory concentration (MIC).
Excerpt: as §1, §2

The next data set relates to CDR1. The data set is described as follows: Expression of CDR1 (qPCR). The format is cell-based, Candida albicans. To be noted: treatment with MIC. Here is the method:
Total RNA was isolated as described by Sanglard et al. with some modifications. C. albicans 475/15 was grown with agitation at 30 °C in YEPD until OD540 = 0.4. C. albicans cells were incubated with MIC of compounds in YEPD at 30 °C with agitation for 30 min. Cells were centrifuged (4600 rpm, 4 °C for 5 min (Rotanata 460 R, Hettich, Tuttlingen, Germany)) and the pellet was resuspended in 300 µL of RNA buffer (0.1 M Tris-HCl pH 7.5, 0.1M LiCl, 10mM EDTA, 0.5% SDS). The pellet was homogenized with 200 µL of DEPC treated glass beads and 300 µL of Phenol:Chloroform:Isoamyl Alcohol (Sigma-Aldrich, Darmstadt, Germany) in Precellys Evolution tissue homogenizer (Bertion instruments, Montigny-le-Bretonneux, France) at 4500 rpm for 5 s. After centrifugation (14,000 rpm, 4 °C, 1 min (Universal 32 R, Hettich, Tuttlingen, Germany)) 200 µL of supernatant was vortexed with 250 µL of Phenol:Chloroform:Isoamyl Alcohol for 10 s. Samples were centrifuged (14,000 rpm, 4 °C, 1 min) and 200 µL of supernatant was transferred to new tubes, 400 µL of ice-cold 99% ethanol was added to each tube, and they were kept on dry ice for 10 min. Samples were centrifuged (14,000 rpm, 4 °C, 2 min), pellet was washed with ethanol (70%), left to dry at room temperature, after which it was dissolved in 50 µL of DEPC treated water. Nanodrop (ND-1000, Witec AG, Sursee, Switzerland) was used for determination of concentration and purity of samples. RNA was stored at −80°C.
Amount of 10 µg RNA was incubated with 5 µL of DNAse buffer and 1 µL of DNAse at 37 °C for 30 min (DNA-free™ DNA Removal Kit, Ambion, Bleiswijk, Netherlands). After addition of DNAse inactivation reagent tubes were kept at room temperature with occasional vortexing for 5 min. Samples were centrifuged (14,000 rpm, 4°C, 2 min) and the concentration and quality of supernatant were analyzed on Nanodrop (ND-1000, Witec AG, Sursee, Switzerland).
Synthesis of cDNA was done with a Transcriptor High Fidelity cDNA synthesis kit (Roche). RNA (1 µg) was incubated with 60 µM random hexamer primers, in 11.4 µL of total sample volume, at 65 °C for 10 min. The mixture of Transcriptase reaction buffer 5×, Deoxynucleotide mix, DTT, Protector RNAse inhibitor, and Transcriptor High Fidelity Reverse Transcriptase was added to each tube according to manufacturer instructions. Synthesis of cDNA was completed by incubating the mixture at 50 °C for 30 min and 85 °C for 5 min (Peqstar thermocycler, Peqlab, Erlangen, Germany).
Wells of MicroAmp Fast 96-Well Reaction plate ((0.1 mL), Applied biosystems, Waltham, MA, USA) were incubated with 10 µL of mixture (cDNA, 2× MasterMix, primers, probe (Table 3), and water). Analysis was performed in StepOnePlus Real Time PCR system with relative standard curve method. Expression levels of CDR1 and ERG11 were normalized to expression of ACT1.
(In qPCR the cycle at which signal appears reflects the starting amount.)

Another data set in a line: in vitro. The settings on record: pig. On the procedure: (§3) Preparation of PLP2 cell line was performed with freshly harvested porcine liver supplied from a local slaughter house. Tissues from the liver were washed in Hank’s balanced salt solution comprising 100 U/mL penicillin and 100 μg/mL streptomycin and split into 1 × 1 mm^3 explants. Some of the prepared explants were set in 25 cm^2 tissue flasks in Dulbecco’s modified Eagle’s medium (DMEM) with 10% fetal bovine serum (FBS), 2 mM nonessential amino acids, 100 U/mL penicillin, and […] streptomycin, and incubation was conducted at 37 °C with 5% CO2 in a humidified atmosphere. The fresh medium was added every 2 days. Cultivation of the cells was further conducted with direct observation by the phase contrast microscope every 2–3 days. Before confluence was achieved, cells were subcultured and seeded in 96-well plates at a density of 1.0 × 10^4 cells per well and cultivated in DMEM supplemented with 10% FBS, 100 U/mL penicillin, and 100 μg/mL streptomycin. Previously described Sulforhodamine B assay was used for the determination of cytotoxicity. The obtained results were defined as GI50 values corresponding to the compound concentration that inhibits 50% of the net cell growth. Ellipticine was used as a positive control.

Another data set deals with porcine liver cells PLP2. The data set is described as follows: in vitro. Here is the method:
as §3

The subject of another data set is C. albicans. The settings on record: cited from earlier work.
The next data set concerns C. albicans biofilm. The settings on record: 625–5000 µg/mL; C. albicans ATCC 90028; cited from earlier work.
The subject of the next data set is S. aureus efflux. Also on record: method as in PMID 25961825. The settings on record: S. aureus; cited from earlier work.
For data set [1], the system named is TIG-1 (human lung embryonic fibroblasts). The settings on record: read-out: LC50; TIG-1 cells; cited from earlier work.
The test system of data set [2] is HUVE (human umbilical vein endothelial) cells. To be noted: read-out: LC50; cited from earlier work.

As for `O=c1cc(-c2ccc(O)c(O)c2)oc2cc(O)cc(O)c12` [Luteolin, luteolin], the minimal fungicidal concentration (MFC) with C. albicans 10/15 (read-out: MFC) worked out at 75 ± 2 µg/mL (≈ 262 µM); in the data set with C. albicans 13/15 (read-out: MFC) it was 75 ± 2 µg/mL (≈ 262 µM); in the data set on C. albicans 475/15 (read-out: MFC) it was 75 ± 2 µg/mL (≈ 262 µM); in the data set on C. albicans 527/14 (read-out: MFC), 75 ± 20 µg/mL (≈ 262 µM). The MIC is 37.5 ± 1 µg/mL (≈ 131 µM) in the data set with C. albicans 10/15 (read-out: MIC); 37.5 ± 1 µg/mL (≈ 131 µM) in the data set on C. albicans 13/15 (read-out: MIC); 37.5 ± 1 µg/mL (≈ 131 µM) in the data set with C. albicans 475/15 (read-out: MIC); 37.5 ± 1 µg/mL (≈ 131 µM) in the data set with C. albicans 527/14 (read-out: MIC); 37.5 µg/mL (≈ 131 µM) in the data set with Candida albicans; over 83 µg/mL in the data set on C. albicans (clinical isolates and C. albicans 10231). Besides, the MIC was 3100 µg/mL (≈ 10800 µM) in the data set on C. albicans (different C. albicans strains, ref 13) and over 1000 µg/mL in the data set with C. albicans (different C. albicans strains, ref 15). Further, the “impact on CDR1 expression” value in the data set on CDR1 is reported as “did not exhibit any significant inhibitory potential”. The 50% growth inhibitory concentration (GI50) in the data set “in vitro” is over 400 µg/mL. Moreover, in the data set with porcine liver cells PLP2, the “cytotoxic effect” value is recorded as “did not exhibit cytotoxic effect”. In addition, the “activity towards biofilm” value with C. albicans biofilm was “inefficient”. Moreover, in the data set with S. aureus efflux, the “IC50, efflux inhibition” value is on record as 75 µg/mL (≈ 262 µM). Moreover, the CC50 in [1] is 107 µM; in data set [2], 57 µM.
